# Experimental data: US20250340579A1 (priority 2022, published 2025)
# Experiments:
# [1] = in vivo; cited from earlier work
# [2] = pH 7.4
Compound,effectiveness post-cyanide exposure versus pre-exposure [1],solution stability [2]
C/C1=C2/[N-][C@H]([C@H](CC(N)=O)[C@@]2(C)CCC(=O)NC[C@@H](C)O)[C@]2(C)N=C(/C(C)=C3N=C(/C=C4N=C1[C@@H](CCC(N)=O)C\4(C)C)[C@@H](CCC(N)=O)[C@]\3(C)CC(N)=O)[C@@H](CCC(N)=O)[C@]2(C)CC(N)=O.[Co+3] [Cobinamide],as effective when administered up to 5 minutes post-cyanide exposure as when given pre-exposure,
bis-aminotetrazole-cobinamide,,stable at room temperature when protected from bright light
